Test results taken from patent publication US11780833B2, “Emetine derivatives, prodrugs containing same, and methods of treating conditions using same” (HOWARD UNIVERSITY, priority 2011, dated 2023).
Where two headings read alike, the source gives them in different places.

Legend:
[1] = test system: LNCaP cells; assay: Cytotoxicity in LNCaP prostate cancer cell line; assay type: cell-based; conditions: Homo sapiens, 168 h, read-out: IC50 after 7 days
Protocol: (§1) Studies were carried out on three prostate cancer cell lines: LNCaP, PC3, and DU145. […] There was not a significant difference in cytotoxicity of emetine between days 3 and 7. […] This increase is most likely due to the release of emetine from the dithiocarbamate salt over the time period. Further drug release studies at pH 5 confirmed about 45% release of emetine from the dithiocarbamate salt after 3-day incubation at this acidic pH maintained at 37° C., whereas release of emetine from the dithiocarbamate salt was not observed at physiological pH (e.g., about 7.4).
(§2) Various compounds prepared according to Examples 1-5 were studied in LNCaP, PC3, and DU145 cells.

[2] = test system: DU145 cells; assay: cells; assay type: cell-based; conditions: Homo sapiens
Protocol: as §1, §2
(§3) Various compounds prepared according to Example 6 were studied in DU145 and PC3 cells. The IC50 was determined at 3, 5, and 7 days.

[3] = test system: PC3 cells; assay: cells; assay type: cell-based; conditions: Homo sapiens
Protocol: as §1, §2, §3

[4] = pH-responsiveness by HPLC: emetine released in aqueous phosphate buffer; assay type: physicochemical; conditions: 37° C.
Protocol: Relative rates of hydrolysis of the compounds listed in Table 5 below over a 48 hour period were evaluated using the percent emetine released from the acid catalyzed hydrolysis of compounds 1 to 6.
The compounds were incubated in aqueous phosphate buffer at pH 5.5, 6.5 and 7.4 at 37° C. over a 48 hour period. High performance liquid chromatography (HPLC) was employed to analyze the samples and quantify how much emetine was released. The compounds whose hydrolysis to emetine is shown in table 5 are all 100% stable at physiological pH 7.4 up to a 5 day exposure.

[5] = DU-145, 168 h, read-out: IC50 after 7 days
[6] = PC-3, 168 h, read-out: IC50 after 7 days
[7] = DU-145, 72 h, read-out: IC50 in DU145
[8] = DU-145, 120 h, read-out: IC50 in DU145
[9] = DU-145, 168 h, read-out: IC50 in DU145
[10] = PC-3, 72 h, read-out: IC50 in PC3
[11] = PC-3, 120 h, read-out: IC50 in PC3
[12] = PC-3, 168 h, read-out: IC50 in PC3

Compound `CCCCNC(=S)N1CCc2cc(OC)c(OC)cc2C1CC1CC2c3cc(OC)c(OC)cc3CCN2CC1CC` (centres unmarked) [Compound 11k] has an IC50 [1] of 1.31 ± 0.166 µM, an IC50 [2, 5] of 6.587 ± 0.0348 µM and an IC50 [3, 6] of 6.92 ± 0.17 µM.

`CCC1CN2CCc3cc(OC)c(OC)cc3C2CC1CC1c2cc(OC)c(OC)cc2CCN1C(=O)/C=C/C(=O)O` (centres unmarked) [Compound 15a2] showed an IC50 [2, 7] of 7.96 ± 0.312 µM, an IC50 [2, 8] of 5.73 ± 0.182 µM and an IC50 [2, 9] of 4.23 ± 0.418 µM. For the same compound, the IC50 [3, 10] was 8.39 ± 0.208 µM, the IC50 [3, 11] was 7.058 ± 0.0157 µM and the IC50 [3, 12] was 7.71 ± 0.151 µM.

With `CCC1CN2CCc3cc(OC)c(OC)cc3C2CC1CC1c2cc(OC)c(OC)cc2CCN1S(=O)(=O)c1ccc(OC)cc1` (centres unmarked) [Compound 8f] the IC50 [3, 6] was 6.08 ± 0.105 µM.

Work on `CCC1CN2CCc3cc(OC)c(OC)cc3C2CC1CC1c2cc(OC)c(OC)cc2CCN1C(=S)NCc1ccc(C)cc1` (centres unmarked) [Compound 11j] yielded an IC50 [2, 5] of 2.63 ± 0.106 µM.

Compound `CCCCCCNC(=S)N1CCc2cc(OC)c(OC)cc2C1CC1CC2c3cc(OC)c(OC)cc3CCN2CC1CC` (centres unmarked) [Compound 11l] has an IC50 [1] of 1.7 ± 0.144 µM and an IC50 [3, 6] of 2.45 ± 0.323 µM.

With `CCC1CN2CCc3cc(OC)c(OC)cc3C2CC1CC1c2cc(OC)c(OC)cc2CCN1C(=O)/C=C(/C)C(=O)O` (centres unmarked) [Compound 3] the “% Emetine at pH 5.5” value ([4]; pH 5.5, 0 hr) was 0.0%, the “% Emetine at pH 5.5” value ([4]; pH 5.5, 24 hrs) was 78.1% and the “% Emetine at pH 5.5” value ([4]; pH 5.5, 48 hrs) was 93.4%. The “% Emetine at pH 6.5” value ([4]; pH 6.5, 0 hr) was 0.0%, the “% Emetine at pH 6.5” value ([4]; pH 6.5, 24 hrs) was 76.8% and the “% Emetine at pH 6.5” value ([4]; pH 6.5, 48 hrs) was 82.7%. The “% Emetine at pH 7.4 to 8.0 over 72 hrs” value ([4]; pH 7.4 to 8.0, 0 hrs) was 0.0%, the “% Emetine at pH 7.4 to 8.0 over 72 hrs” value ([4]; pH 7.4 to 8.0, 24 hrs) was 0.0% and the “% Emetine at pH 7.4 to 8.0 over 72 hrs” value ([4]; pH 7.4 to 8.0, 48 hrs) was 0.0%.

With `CCC1CN2CCc3cc(OC)c(OC)cc3C2CC1CC1c2cc(OC)c(OC)cc2CCN1S(=O)(=O)c1ccc(Cl)cc1` (centres unmarked) [Compound 8d] the IC50 [2, 5] was 6.62 ± 0.167 µM and the IC50 [3, 6] was 4.21 ± 0.435 µM.

Work on `CCC1CN2CCc3cc(OC)c(OC)cc3C2CC1CC1c2cc(OC)c(OC)cc2CCN1C(=O)/C=C(/CC(=O)O)C(=O)O` (centres unmarked) [Compound 15d2] yielded an IC50 [2, 7] of 2.58 ± 0.191 µM, an IC50 [2, 8] of 2.01 ± 0.0734 µM and an IC50 [2, 9] of 1.79 ± 0.134 µM. For the same compound, the IC50 [3, 10] was 3.06 ± 0.11 µM, the IC50 [3, 11] was 2.43 ± 0.118 µM and the IC50 [3, 12] was 2.89 ± 0.123 µM.

With `CCC1CN2CCc3cc(OC)c(OC)cc3C2CC1CC1c2cc(OC)c(OC)cc2CCN1C(=S)NCc1ccccc1Cl` (centres unmarked) [Compound 11h] the IC50 [2, 5] was 2.37 ± 0.112 µM.

Compound `CCC1CN2CCc3cc(OC)c(OC)cc3C2CC1CC1c2cc(OC)c(OC)cc2CCN1C(=O)NCc1ccccc1` (centres unmarked) [Compound 13e] has an IC50 [1] of 2.12 ± 0.576 µM.

For `CCC1CN2CCc3cc(OC)c(OC)cc3C2CC1CC1c2cc(OC)c(OC)cc2CCN1S(=O)(=O)c1ccc(F)cc1` (centres unmarked) [Compound 8c], the IC50 [2, 5] was 8.038 ± 0.06 µM and the IC50 [3, 6] was 4.58 ± 0.383 µM.

Work on `CCC1CN2CCc3cc(OC)c(OC)cc3C2CC1CC1c2cc(OC)c(OC)cc2CCN1C(=S)Nc1ccc(Br)cc1` (centres unmarked) [Compound 11d] yielded an IC50 [1] of 0.339 ± 0.0327 µM and an IC50 [3, 6] of 0.443 ± 0.0383 µM.

With `CCC1CN2CCc3cc(OC)c(OC)cc3C2CC1CC1c2cc(OC)c(OC)cc2CCN1C(=S)SCC(=O)c1ccc(Cl)cc1` (centres unmarked) [Compound 4i] the IC50 [2, 5] was 2.45 ± 0.162 µM and the IC50 [3, 6] was 2.69 ± 0.145 µM.

For `CCC1CN2CCc3cc(OC)c(OC)cc3C2CC1CC1c2cc(OC)c(OC)cc2CCN1C(=O)/C(Cl)=C(\Cl)C(=O)O` (centres unmarked) [Compound 15b2], the IC50 [2, 7] was 6.53 ± 0.0852 µM, the IC50 [2, 8] was 5.99 ± 0.239 µM and the IC50 [2, 9] was 5.218 ± 0.0459 µM. The IC50 [3, 10] was 7.58 ± 0.135 µM, the IC50 [3, 11] was 5.99 ± 0.239 µM and the IC50 [3, 12] was 7.51 ± 0.168 µM.

`CCC1CN2CCc3cc(OC)c(OC)cc3C2CC1CC1c2cc(OC)c(OC)cc2CCN1C(=S)SCCN1C(=O)c2ccccc2C1=O` (centres unmarked) [Compound 4d] showed an IC50 [2, 5] of 3.05 ± 0.07 µM and an IC50 [3, 6] of 2.77 ± 0.06 µM.

`CCC1CN2CCc3cc(OC)c(OC)cc3C2CC1CC1c2cc(OC)c(OC)cc2CCN1S(C)(=O)=O` (centres unmarked) [Compound 8b] gave an IC50 [1] of 2.1 ± 0.284 µM and an IC50 [3, 6] of 4.01 ± 0.868 µM.

In the case of `CCC1CN2CCc3cc(OC)c(OC)cc3C2CC1CC1c2cc(OC)c(OC)cc2CCN1C(=O)/C=C\C(=O)O` (centres unmarked) [Compound 2], the “% Emetine at pH 5.5” value ([4]; pH 5.5, 0 hr) is reported as 0.0%, the “% Emetine at pH 5.5” value ([4]; pH 5.5, 24 hrs) is reported as 36.3% and the “% Emetine at pH 5.5” value ([4]; pH 5.5, 48 hrs) is reported as 54.10%. The “% Emetine at pH 6.5” value ([4]; pH 6.5, 0 hr) was 0.0%, the “% Emetine at pH 6.5” value ([4]; pH 6.5, 24 hrs) was 35.5% and the “% Emetine at pH 7.4 to 8.0 over 72 hrs” value ([4]; pH 7.4 to 8.0, 0 hrs) was 0.0%. For the same compound, the “% Emetine at pH 7.4 to 8.0 over 72 hrs” value ([4]; pH 7.4 to 8.0, 24 hrs) was 0.0% and the “% Emetine at pH 7.4 to 8.0 over 72 hrs” value ([4]; pH 7.4 to 8.0, 48 hrs) was 0.0%.
